The values that follow come from ChEMBL document CHEMBL3045870, “Some new thiazolyl thiazolidinedione derivatives as aldose reductase inhibitors” (Med Chem Res, 2007).

In general, inhibition refers to the drop in the measured response relative to a control, in per cent.

SMILES strings stand for the structures.

The target in the test is Aldo-keto reductase family 1 member B1 (Rattus norvegicus) (UniProt P07943). As to the kind of experiment: Inhibition of Rattus norvegicus (rat) kidney aldose reductase using D-L-glyceraldehyde as substRattus norvegicus (rat) e assessed as decrease in NADPH level at 10^-4 M measured for 5 min by spectrophotometric analysis.
`O=C1S/C(=C\c2sc(SCc3ccc(Cl)cc3)nc2Cl)C(=O)N1Cc1ccc(Cl)cc1`: the inhibition is 0%.

For the molecule `O=C1S/C(=C\c2sc(N3CCCCC3)nc2Cl)C(=O)N1Cc1ccc(Cl)cc1Cl`, the inhibition stood at 3.27%.

As to `O=C1S/C(=C\c2sc(SCc3ccc(Cl)cc3)nc2Cl)C(=O)N1Cc1ccc(Cl)cc1Cl`, the inhibition worked out at 1.56%.

Regarding `O=C1S/C(=C\c2sc(SCc3ccc(Cl)cc3)nc2Cl)C(=O)N1Cc1ccc([N+](=O)[O-])cc1`, the inhibition was 0%.

With `O=C1S/C(=C\c2sc(N3CCCCC3)nc2Cl)C(=O)N1Cc1ccc([N+](=O)[O-])cc1`, the inhibition is 2.49%.

`O=C1S/C(=C\c2sc(SCc3ccc(Cl)cc3)nc2Cl)C(=O)N1Cc1ccccc1`: the inhibition worked out at 0%.

For `O=C1S/C(=C\c2sc(SCc3ccc(Cl)cc3)nc2Cl)C(=O)N1Cc1ccc(F)cc1`, the inhibition turned out to be 0%.

For the molecule `O=C1S/C(=C\c2sc(N3CCCCC3)nc2Cl)C(=O)N1Cc1ccccc1`, the inhibition stood at 0%.

For the molecule `O=C1S/C(=C\c2sc(SCc3ccc(Cl)cc3)nc2Cl)C(=O)N1Cc1ccc(Br)cc1`, the inhibition was 0%.

As to `O=C1S/C(=C\c2sc(N3CCCCC3)nc2Cl)C(=O)N1Cc1ccc(Br)cc1`, the inhibition was determined as 0.62%.

For the molecule `O=C1S/C(=C\c2sc(N3CCCCC3)nc2Cl)C(=O)N1Cc1ccc(F)cc1`, the inhibition is 0%.

In the case of `O=C1S/C(=C\c2sc(N3CCCCC3)nc2Cl)C(=O)N1Cc1ccc(Cl)cc1`, the inhibition came out at 0.62%.
